Experimental data: patent US4737494A, “1,3-dithiole derivatives and pharmaceutical compositions” (priority 1984, dated 1988)

Tested on: acute liver injury induced by carbon tetrachloride
Test: Protective effect on acute liver injury induced by carbon tetrachloride (mice, oral): plasma GPT activity and BSP retention
Type: in vivo, mice (ddY, male)
Conditions: 6 h before CCl4 (0.05 ml/kg p.o.); for GPT activity: plasma; for Retained BSP: plasma 30 min after BSP 75 mg/kg i.v.
Method: 1. Protective Effect on Acute Liver Injury Induced by Carbon Tetrachloride
A test compound was dissolved or suspended in olive oil and administered orally to mice (ddY mice, .male., 23±2 g, n=5). After 6 hours, carbon tetrachloride (0.05 ml/kg) was administered orally. 24 Hours after the administration of carbon tetrachloride, BSP (sodium sulfobromophthalein; 75 mg/kg) was administered intravenously. Thirty minutes later, the cardiac blood was collected, and GPT (glutamic-pyruvic transaminase) activity and the retention rate of BSP in the plasma were measured.

Compound	GPT activity (1 mg/kg)	Retained BSP (1 mg/kg)	GPT activity (5 mg/kg)	Retained BSP (5 mg/kg)
CCOC(=O)C[N+](C)=c1sccs1.[O-][Cl+3]([O-])([O-])[O-] [Compound No. 1, N-(1,3-dithiol-2-ylidene)-N-methyl-N-ethoxycarbonylmethylammonium perchlorate]	3280 ± 399 Karmen units	53.2 ± 11.4 µg/mL	183 ± 74 Karmen units	18.4 ± 1.3 µg/mL
CNC(=O)C[N+](C)=c1sccs1 [Compound No. 3, N-(1,3-dithiol-2-ylidene)-N-methyl-N-(N'-methylcarbamoylmethyl)ammonium perchlorate]	3740 ± 430 Karmen units	67.1 ± 14.3 µg/mL	541 ± 101 Karmen units	27.1 ± 10.1 µg/mL
C[N+](CCC#N)=c1sccs1.[I-] [Compound No. 4, N-(1,3-dithiol-2-ylidene)-N-methyl-N-(2-cyanoethyl)ammonium iodide]	2535 ± 158 Karmen units	42.6 ± 2.3 µg/mL	543 ± 92 Karmen units	29.4 ± 11.1 µg/mL
C[N+](=c1sccs1)C1CCCCC1.[O-][Cl+3]([O-])([O-])[O-] [Compound No. 7, N-(1,3-dithiol-2-ylidene)-N-methyl-N-cyclohexylammonium perchlorate]	4920 ± 670 Karmen units	120.1 ± 17.1 µg/mL	1400 ± 77 Karmen units	57.1 ± 5.1 µg/mL
C[N+](c1ccccc1)=c1sccs1.[O-][Cl+3]([O-])([O-])[O-] [Compound No. 8, N-(1,3-dithiol-2-ylidene)-N-methyl-N-phenylammonium perchlorate]	2394 ± 193 Karmen units	39.3 ± 10.7 µg/mL	117 ± 28 Karmen units	11.6 ± 1.5 µg/mL
Cc1cccc([N+](C)=c2sccs2)c1.[O-][Cl+3]([O-])([O-])[O-] [Compound No. 9, N-(1,3-dithiol-2-ylidene)-N-methyl-N-(m-tolyl)ammonium perchlorate]	2250 ± 325 Karmen units	73.1 ± 14.7 µg/mL	191 ± 71 Karmen units	21.4 ± 2.1 µg/mL
C[N+](Cc1ccccc1)=c1sccs1.[O-][Cl+3]([O-])([O-])[O-] [Compound No. 10, N-(1,3-dithiol-2-ylidene)-N-methyl-N-benzylammonium perchlorate]	1865 ± 106 Karmen units	29.5 ± 6.0 µg/mL	108 ± 27 Karmen units	16.6 ± 1.6 µg/mL
C=CC[N+](CC=C)=c1sccs1.[O-][Cl+3]([O-])([O-])[O-] [Compound No. 12, N-(1,3-dithiol-2-ylidene)-N,N-diallylammonium perchlorate]	5438 ± 401 Karmen units	109.3 ± 14.8 µg/mL	1241 ± 103 Karmen units	25.4 ± 5.0 µg/mL
[O-][Cl+3]([O-])([O-])[O-].c1ccc(C[N+](Cc2ccccc2)=c2sccs2)cc1 [Compound No. 16, N-(1,3-dithiol-2-ylidene)-N,N-dibenzylammonium perchlorate]	4121 ± 311 Karmen units	107.4 ± 13.9 µg/mL	1017 ± 37 Karmen units	21.8 ± 6.0 µg/mL
COC(=O)CC(C(=O)OC)[N+](C)=c1sccs1.[O-][Cl+3]([O-])([O-])[O-] (stereo not shown) [Compound No. 17, N-(1,3-dithiol-2-ylidene)-N-methyl-N-(1,2-dimethoxycarbonylethyl)ammonium perchlorate]	4760 ± 298 Karmen units	135 ± 8.9 µg/mL	3883 ± 324 Karmen units	86 ± 11.1 µg/mL
CC(C)CC(C(=O)OC(C)C)[N+](C)=c1sccs1.[O-][Cl+3]([O-])([O-])[O-] (stereo not shown) [Compound No. 18, N-(1,3-dithiol-2-ylidene)-N-methyl-N-(3-methyl-1-isopropoxycarbonylbutyl)ammonium perchlorate]	4100 ± 615 Karmen units	106.9 ± 17.5 µg/mL	3250 ± 365 Karmen units	44.1 ± 5.2 µg/mL
[O-][Cl+3]([O-])([O-])[O-].c1csc(=[N+]2CCOCC2)s1 [Compound No. 26, 4-(1,3-dithiol-2-ylidene)morpholinium perchlorate]	483 ± 178 Karmen units	21.6 ± 2.7 µg/mL	113 ± 32 Karmen units	13.8 ± 2.5 µg/mL
[O-][Cl+3]([O-])([O-])[O-].c1csc(=[N+]2CCCCC2)s1 [Compound No. 34, 1-(1,3-dithiol-2-ylidene)piperidinium perchlorate]	512 ± 205 Karmen units	26.5 ± 8.0 µg/mL	116 ± 39 Karmen units	15.6 ± 3.0 µg/mL
[O-][Cl+3]([O-])([O-])[O-].c1csc(=[N+]2CCCC2)s1 [Compound No. 35, 1-(1,3-dithiol-2-ylidene)pyrrolidinium perchlorate]	4239 ± 816 Karmen units	101.2 ± 22.6 µg/mL	2472 ± 820 Karmen units	35.8 ± 12.4 µg/mL
CCOC(=O)C1CCC[N+]1=c1sccs1.[Cl-] (stereo not shown) [Compound No. 42, 1-(1,3-dithiol-2-ylidene)-2-ethoxycarbonyl pyrrolidinium chloride]	1673 ± 214 Karmen units	53.1 ± 6.3 µg/mL	231 ± 43 Karmen units	21.4 ± 3.5 µg/mL
NC(=O)C1CCC[N+]1=c1sccs1.[I-] (stereo not shown) [Compound No. 44, 1-(1,3-dithiol-2-ylidene)-2-carbamoylpyrrolidinium iodide]	6311 ± 867 Karmen units	134.7 ± 21.7 µg/mL	5213 ± 716 Karmen units	119.4 ± 11.8 µg/mL
CCCCCCC1CCC[N+]1=c1sccs1.[O-][Cl+3]([O-])([O-])[O-] (stereo not shown) [Compound No. 45, 1-(1,3-dithiol-2-ylidene)-2-(n-hexyl)pyrrolidinium perchlorate]	4264 ± 521 Karmen units	110 ± 20.5 µg/mL	1072 ± 282 Karmen units	76 ± 6.3 µg/mL
[O-][Cl+3]([O-])([O-])[O-].c1ccc(C2CCC[N+]2=c2sccs2)cc1 (stereo not shown) [Compound No. 46, 1-(1,3-dithiol-2-ylidene)-2-phenylpyrrolidinium perchlorate]	3978 ± 627 Karmen units	101 ± 17.4 µg/mL	1040 ± 121 Karmen units	69 ± 7.1 µg/mL
CC1CCC[N+](=c2sccs2)C1.[O-][Cl+3]([O-])([O-])[O-] (stereo not shown) [Compound No. 52, 1-(1,3-dithiol-2-ylidene)-3-methylpiperidinium perchlorate]	2391 ± 325 Karmen units	87.1 ± 13.4 µg/mL	138 ± 18 Karmen units	17.8 ± 4.9 µg/mL
CC1CC[N+](=c2sccs2)CC1.[O-][Cl+3]([O-])([O-])[O-] (stereo not shown) [Compound No. 53, 1-(1,3-dithiol-2-ylidene)-4-methylpiperidinium perchlorate]	1843 ± 162 Karmen units	70.0 ± 19.3 µg/mL	193 ± 81 Karmen units	16.9 ± 3.1 µg/mL
O=C(O)C1CC[N+](=c2sccs2)CC1.[O-][Cl+3]([O-])([O-])[O-] (stereo not shown) [Compound No. 57, 1-(1,3-dithiol-2-ylidene)-4-carboxypiperidinium perchlorate]	3735 ± 374 Karmen units	101.1 ± 20.0 µg/mL	2922 ± 247 Karmen units	90.1 ± 14.7 µg/mL
NC(=O)C1CC[N+](=c2sccs2)CC1.[I-] (stereo not shown) [Compound No. 58, 1-(1,3-dithiol-2-ylidene)-4-carbamoylpiperidinium iodide]	3266 ± 245 Karmen units	98.1 ± 21.0 µg/mL	1151 ± 181 Karmen units	41.5 ± 7.1 µg/mL
N#CC1CC[N+](=c2sccs2)CC1.[O-][Cl+3]([O-])([O-])[O-] (stereo not shown) [Compound No. 59, 1-(1,3-dithiol-2-ylidene)-4-cyanopiperidinium perchlorate]	2991 ± 382 Karmen units	110.1 ± 27.3 µg/mL	763 ± 118 Karmen units	49.1 ± 8.1 µg/mL
OC1CC[N+](=c2sccs2)CC1.[O-][Cl+3]([O-])([O-])[O-] (stereo not shown) [Compound No. 60, 1-(1,3-dithiol-2-ylidene)-4-hydroxypiperidinium perchlorate]	1321 ± 197 Karmen units	63.4 ± 10.9 µg/mL	131 ± 10 Karmen units	19.1 ± 2.1 µg/mL
CC1CC(C)C[N+](=c2sccs2)C1.[I-] (stereo not shown) [Compound No. 67, 1-(1,3-dithiol-2-ylidene)-3,5-dimethylpiperidinium iodide]	2718 ± 431 Karmen units	111.4 ± 17.1 µg/mL	372 ± 27 Karmen units	21.3 ± 4.0 µg/mL
